Patent US8192962B2, “Processes for detecting toxic substances” (Daikin Industries, Ltd., priority 2001, dated 2012)

Test system: Stress protein genes
Assay: DNA chip mRNA expression in yeast, stress protein genes (Table 6)
Format: cell-based, Saccharomyces cerevisiae S288C
Outline: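 Measured as treated-to-untreated fluorescence ratio on a full-genome yeast DNA chip. Cells (S288C, YPD, 25° C.) were exposed in log phase for two hours to one chemical, dosed to curb growth without killing.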

N#Cc1c(Cl)c(Cl)c(Cl)c(C#N)c1Cl [(9), 2,4,5,6-tetrachloro-1,3-benzenedicarbonitrile]
The level of expressed mRNA in the presence of chemical substance/The level of expressed mRNA in the absence of chemical substance (yeast gene YAL005C): 3.9
The level of expressed mRNA in the presence of chemical substance/The level of expressed mRNA in the absence of chemical substance (yeast gene YAL015C): 4.0
The level of expressed mRNA in the presence of chemical substance/The level of expressed mRNA in the absence of chemical substance (yeast gene YBL075C): 60.3
The level of expressed mRNA in the presence of chemical substance/The level of expressed mRNA in the absence of chemical substance (yeast gene YBL093C): 0.7
The level of expressed mRNA in the presence of chemical substance/The level of expressed mRNA in the absence of chemical substance (yeast gene YBR044C): 0.8
The level of expressed mRNA in the presence of chemical substance/The level of expressed mRNA in the absence of chemical substance (yeast gene YBR054W): 0.4
The level of expressed mRNA in the presence of chemical substance/The level of expressed mRNA in the absence of chemical substance (yeast gene YBR067C): 1.7
The level of expressed mRNA in the presence of chemical substance/The level of expressed mRNA in the absence of chemical substance (yeast gene YBR072W): 29.4
The level of expressed mRNA in the presence of chemical substance/The level of expressed mRNA in the absence of chemical substance (yeast gene YBR126C): 1.7
The level of expressed mRNA in the presence of chemical substance/The level of expressed mRNA in the absence of chemical substance (yeast gene YBR169C): 7.0
The level of expressed mRNA in the presence of chemical substance/The level of expressed mRNA in the absence of chemical substance (yeast gene YCL035C): 1.9
The level of expressed mRNA in the presence of chemical substance/The level of expressed mRNA in the absence of chemical substance (yeast gene YCR021C): 2.2
The level of expressed mRNA in the presence of chemical substance/The level of expressed mRNA in the absence of chemical substance (yeast gene YCR060W): 0.7
The level of expressed mRNA in the presence of chemical substance/The level of expressed mRNA in the absence of chemical substance (yeast gene YCR083W): 1.8
The level of expressed mRNA in the presence of chemical substance/The level of expressed mRNA in the absence of chemical substance (yeast gene YDL022W): 1.2
The level of expressed mRNA in the presence of chemical substance/The level of expressed mRNA in the absence of chemical substance (yeast gene YDL025C): 3.6
The level of expressed mRNA in the presence of chemical substance/The level of expressed mRNA in the absence of chemical substance (yeast gene YDR033W): 0.3
The level of expressed mRNA in the presence of chemical substance/The level of expressed mRNA in the absence of chemical substance (yeast gene YDR077W): 0.7
The level of expressed mRNA in the presence of chemical substance/The level of expressed mRNA in the absence of chemical substance (yeast gene YDR098C): 3.7
The level of expressed mRNA in the presence of chemical substance/The level of expressed mRNA in the absence of chemical substance (yeast gene YDR155C): 1.3
The level of expressed mRNA in the presence of chemical substance/The level of expressed mRNA in the absence of chemical substance (yeast gene YDR258C): 4.9
The level of expressed mRNA in the presence of chemical substance/The level of expressed mRNA in the absence of chemical substance (yeast gene YDR293C): 1.2
The level of expressed mRNA in the presence of chemical substance/The level of expressed mRNA in the absence of chemical substance (yeast gene YDR436W): 3.5
The level of expressed mRNA in the presence of chemical substance/The level of expressed mRNA in the absence of chemical substance (yeast gene YDR513W): 4.6
The level of expressed mRNA in the presence of chemical substance/The level of expressed mRNA in the absence of chemical substance (yeast gene YDR519W): 0.5
The level of expressed mRNA in the presence of chemical substance/The level of expressed mRNA in the absence of chemical substance (yeast gene YEL030W): 2.3
The level of expressed mRNA in the presence of chemical substance/The level of expressed mRNA in the absence of chemical substance (yeast gene YEL039C): 1.2
The level of expressed mRNA in the presence of chemical substance/The level of expressed mRNA in the absence of chemical substance (yeast gene YER042W): 6.8
The level of expressed mRNA in the presence of chemical substance/The level of expressed mRNA in the absence of chemical substance (yeast gene YER057C): 0.6
The level of expressed mRNA in the presence of chemical substance/The level of expressed mRNA in the absence of chemical substance (yeast gene YER103W): 20.3
The level of expressed mRNA in the presence of chemical substance/The level of expressed mRNA in the absence of chemical substance (yeast gene YER125W): 0.6
The level of expressed mRNA in the presence of chemical substance/The level of expressed mRNA in the absence of chemical substance (yeast gene YFL014W): 13.1
The level of expressed mRNA in the presence of chemical substance/The level of expressed mRNA in the absence of chemical substance (yeast gene YFL016C): 6.4
The level of expressed mRNA in the presence of chemical substance/The level of expressed mRNA in the absence of chemical substance (yeast gene YFL020C): 1.3
The level of expressed mRNA in the presence of chemical substance/The level of expressed mRNA in the absence of chemical substance (yeast gene YFR052W): 3.7
The level of expressed mRNA in the presence of chemical substance/The level of expressed mRNA in the absence of chemical substance (yeast gene YGL073W): 1.9
The level of expressed mRNA in the presence of chemical substance/The level of expressed mRNA in the absence of chemical substance (yeast gene YGL115W): 1.2
The level of expressed mRNA in the presence of chemical substance/The level of expressed mRNA in the absence of chemical substance (yeast gene YGL181W): 2.7
The level of expressed mRNA in the presence of chemical substance/The level of expressed mRNA in the absence of chemical substance (yeast gene YGR088W): 1.5
The level of expressed mRNA in the presence of chemical substance/The level of expressed mRNA in the absence of chemical substance (yeast gene YHL028W): 0.2
The level of expressed mRNA in the presence of chemical substance/The level of expressed mRNA in the absence of chemical substance (yeast gene YHL046C): 1.0
The level of expressed mRNA in the presence of chemical substance/The level of expressed mRNA in the absence of chemical substance (yeast gene YHR030C): 0.6
The level of expressed mRNA in the presence of chemical substance/The level of expressed mRNA in the absence of chemical substance (yeast gene YHR057C): 2.6
The level of expressed mRNA in the presence of chemical substance/The level of expressed mRNA in the absence of chemical substance (yeast gene YHR104W): 4.8
The level of expressed mRNA in the presence of chemical substance/The level of expressed mRNA in the absence of chemical substance (yeast gene YIL011W): 0.0
The level of expressed mRNA in the presence of chemical substance/The level of expressed mRNA in the absence of chemical substance (yeast gene YIL033C): 2.4
The level of expressed mRNA in the presence of chemical substance/The level of expressed mRNA in the absence of chemical substance (yeast gene YIR037W): 6.2
The level of expressed mRNA in the presence of chemical substance/The level of expressed mRNA in the absence of chemical substance (yeast gene YIR038C): 4.6
The level of expressed mRNA in the presence of chemical substance/The level of expressed mRNA in the absence of chemical substance (yeast gene YJL128C): 2.0
The level of expressed mRNA in the presence of chemical substance/The level of expressed mRNA in the absence of chemical substance (yeast gene YJL158C): 0.2
The level of expressed mRNA in the presence of chemical substance/The level of expressed mRNA in the absence of chemical substance (yeast gene YJL159W): 0.5
The level of expressed mRNA in the presence of chemical substance/The level of expressed mRNA in the absence of chemical substance (yeast gene YJL165C): 2.8
The level of expressed mRNA in the presence of chemical substance/The level of expressed mRNA in the absence of chemical substance (yeast gene YJR045C): 3.2
The level of expressed mRNA in the presence of chemical substance/The level of expressed mRNA in the absence of chemical substance (yeast gene YJR090C): 1.9
The level of expressed mRNA in the presence of chemical substance/The level of expressed mRNA in the absence of chemical substance (yeast gene YKL161C): 1.4
The level of expressed mRNA in the presence of chemical substance/The level of expressed mRNA in the absence of chemical substance (yeast gene YKL163W): 0.7
The level of expressed mRNA in the presence of chemical substance/The level of expressed mRNA in the absence of chemical substance (yeast gene YKL164C): 0.4
The level of expressed mRNA in the presence of chemical substance/The level of expressed mRNA in the absence of chemical substance (yeast gene YKL210W): 3.5
The level of expressed mRNA in the presence of chemical substance/The level of expressed mRNA in the absence of chemical substance (yeast gene YKR053C): 0.8
The level of expressed mRNA in the presence of chemical substance/The level of expressed mRNA in the absence of chemical substance (yeast gene YLL024C): 2.8
The level of expressed mRNA in the presence of chemical substance/The level of expressed mRNA in the absence of chemical substance (yeast gene YLL026W): 11.4
The level of expressed mRNA in the presence of chemical substance/The level of expressed mRNA in the absence of chemical substance (yeast gene YLL039C): 3.4
The level of expressed mRNA in the presence of chemical substance/The level of expressed mRNA in the absence of chemical substance (yeast gene YLL060C): 13.0
The level of expressed mRNA in the presence of chemical substance/The level of expressed mRNA in the absence of chemical substance (yeast gene YLR006C): 1.1
The level of expressed mRNA in the presence of chemical substance/The level of expressed mRNA in the absence of chemical substance (yeast gene YLR109W): 2.4
The level of expressed mRNA in the presence of chemical substance/The level of expressed mRNA in the absence of chemical substance (yeast gene YLR259C): 1.8
The level of expressed mRNA in the presence of chemical substance/The level of expressed mRNA in the absence of chemical substance (yeast gene YML007W): 2.1
The level of expressed mRNA in the presence of chemical substance/The level of expressed mRNA in the absence of chemical substance (yeast gene YML070W): 4.5
The level of expressed mRNA in the presence of chemical substance/The level of expressed mRNA in the absence of chemical substance (yeast gene YMR021C): 0.6
The level of expressed mRNA in the presence of chemical substance/The level of expressed mRNA in the absence of chemical substance (yeast gene YMR173W): 2.7
The level of expressed mRNA in the presence of chemical substance/The level of expressed mRNA in the absence of chemical substance (yeast gene YMR186W): 2.6
The level of expressed mRNA in the presence of chemical substance/The level of expressed mRNA in the absence of chemical substance (yeast gene YNL064C): 2.4
The level of expressed mRNA in the presence of chemical substance/The level of expressed mRNA in the absence of chemical substance (yeast gene YNL160W): 3.5
The level of expressed mRNA in the presence of chemical substance/The level of expressed mRNA in the absence of chemical substance (yeast gene YNL241C): 3.4
The level of expressed mRNA in the presence of chemical substance/The level of expressed mRNA in the absence of chemical substance (yeast gene YNR076W): 1.3
The level of expressed mRNA in the presence of chemical substance/The level of expressed mRNA in the absence of chemical substance (yeast gene YOL064C): 8.7
The level of expressed mRNA in the presence of chemical substance/The level of expressed mRNA in the absence of chemical substance (yeast gene YOL161C): 0.7
The level of expressed mRNA in the presence of chemical substance/The level of expressed mRNA in the absence of chemical substance (yeast gene YOR008C): 1.9
The level of expressed mRNA in the presence of chemical substance/The level of expressed mRNA in the absence of chemical substance (yeast gene YOR009W): 0.4
The level of expressed mRNA in the presence of chemical substance/The level of expressed mRNA in the absence of chemical substance (yeast gene YOR010C): 0.6
The level of expressed mRNA in the presence of chemical substance/The level of expressed mRNA in the absence of chemical substance (yeast gene YOR027W): 3.5
The level of expressed mRNA in the presence of chemical substance/The level of expressed mRNA in the absence of chemical substance (yeast gene YOR208W): 1.5
The level of expressed mRNA in the presence of chemical substance/The level of expressed mRNA in the absence of chemical substance (yeast gene YPL059W): 2.0
The level of expressed mRNA in the presence of chemical substance/The level of expressed mRNA in the absence of chemical substance (yeast gene YPL106C): 4.9
The level of expressed mRNA in the presence of chemical substance/The level of expressed mRNA in the absence of chemical substance (yeast gene YPL140C): 0.9
The level of expressed mRNA in the presence of chemical substance/The level of expressed mRNA in the absence of chemical substance (yeast gene YPL194W): 9.6
The level of expressed mRNA in the presence of chemical substance/The level of expressed mRNA in the absence of chemical substance (yeast gene YPL223C): 29.4
The level of expressed mRNA in the presence of chemical substance/The level of expressed mRNA in the absence of chemical substance (yeast gene YPL240C): 3.5
The level of expressed mRNA in the presence of chemical substance/The level of expressed mRNA in the absence of chemical substance (yeast gene YPR005C): 2.8
The level of expressed mRNA in the presence of chemical substance/The level of expressed mRNA in the absence of chemical substance (yeast gene YPR026W): 0.9
